Assay results reported in patent publication US9193699B2, “Apoptosis inducing compounds” (INSTITUT NATIONAL DE LA SANTE ET DE LA RECHERCHE MEDICALE …, priority 2011, dated 2015).

What was measured:
[1] = tested on: caspase-3 and caspase-7 in L226 cells; test: Caspase 3/7 activation (Caspase-Glo 3/7) in L226 tumor cells; type: cell-based; conditions: Homo sapiens, R=RLU at 20 μM/RLU at 0 μM, 24 h, read-out: Caspase 3/7 activation R (RLU fold increase from untreated cells)
Method: (§1) Human breast tumor L226 cells were plated in a 96 well plate at 10000 cells/100 μL at 37° C. in 5% CO2. Serial dilutions of drugs (compounds 1, 3 or 4) ranging from 20 μM to 300 nM were added at day 0. Active caspase-3 and caspase-7 were measured in triplicate after 24 h treatment by incubating 50 μL of the Caspase-Glo 3/7 reagent for 60 min at 25° C. This reagent containing the proluminescent tetrapeptide sequence DEVD in a cell lysis buffer (Promega) (FIG. 7).
Caspase 3/7 activation in SUM149 and L226 tumor cells was measured.
(§2) The calculated values R correspond to Relative Luminescence Units (RLU) fold increase from untreated cells (R=RLU at 20 μM/RLU at 0 μM).

[2] = tested on: Human breast tumor L226 cells; test: Inhibition of tumor cell growth (alamar blue), L226; type: cell-based; conditions: 120 h, calculated on the basis of cell growth inhibition, day 5, alamar blue
Method: (§3) All biological experiments (Examples 2 to 9) have been performed with recommended cell line specific culture medium. For SUM149 and L226, culture medium is supplemented with 10% Fetal Calf Serum. For HME-1 and MCF-10A, culture medium is supplemented with 5% Horse Serum.
(§4) Human breast tumor L226 cells (Inflammatory Breast Cancer (IBC) of ERB-B2 subtype) were plated in a 96 well plate at 3000 cells/100 μL at 37° C. in 5% CO2. Serial dilutions of drugs (compounds 1, 3 or 4) ranging from 20 μM to 300 nM were added at day 0 and day 3. The number of viable cells was determined in triplicate at day 5 by incubating 10 μL of the alamar blue staining solution for 2 hours at 37° C. (FIG. 3).
IC50 values of compounds 1-14 for the inhibition of SUM149 and L226 tumor cells growth were measured (according to the experimental procedure of Examples 2 and 3): […]

[3] = tested on: Human normal mammary epithelial MCF-10A cells; test: Effect on growth of normal cells (alamar blue), MCF-10A; type: cell-based; conditions: calculated on the basis of cell growth inhibition
Method: as §3
as §4, with “normal mammary epithelial MCF-10A” for “breast tumor L226”, “cells” for “cells (Inflammatory Breast Cancer (IBC) of ERB-B2 subtype)”, “5).” for “3).”
(§5) IC50 values of compounds 1-14 for the inhibition of MCF-10A and HME-1 normal cells growth were also measured (according to the experimental procedure of Examples 4 and 5): […]

[4] = tested on: caspase-3 and caspase-7 in HME-1 cells; test: Caspase 3/7 activation (Caspase-Glo 3/7) in HME-1 normal cells; type: cell-based; conditions: Homo sapiens, HME1, R=RLU at 20 μM/RLU at 0 μM, 24 h, read-out: Caspase 3/7 activation R (RLU fold increase from untreated cells)
Method: as §1, with “normal mammary epithelial HME-1” for “breast tumor L226”, “8).” for “7).”
as §2
Caspase 3/7 activation in MCF-10A and HME-1 normal cells was also measured.

[5] = tested on: tumors derived from MMTC-ErbB2/neu mice; test: TUNEL assay of tumor apoptosis in MMTV-ErB2/Neu mice; type: in vivo; conditions: 100 mg/kg for 30 days
Method: DNA fragmentation in apoptotic cells was analyzed by the TUNEL assay (ApopTag detection kit, Millipore) as recommended by the manufacturer.
Briefly, 4 μm sections of paraffin-embedded fixed tissue from tumors derived from MMTC-ErbB2/neu mice treated with vehicle or with Compound 12, 4 or 8 (100 mg/kg) for 30 days, were deparaffined with successive histolemon and ethanol washes, then treated with 20 μg/mL proteinase K for 15 min at room temperature. Endogenous peroxidise was quenched with 3% hydrogen peroxide. […] Coloration was performed using the diaminobenzidine mixed substrate (Dako). Counterstaining was done with a solution of 1% methyl green for 5 min at room temperature. After distilled water and N-butanol washes, specimens were mounted in Pertex medium (CellPath). Observations were made using the Leica DMD108 digital microimaging device (Leica Microsystems GmbH).

[6] = tested on: Human normal mammary epithelial HME-1 cells; test: Effect on growth of normal cells (alamar blue), HME-1; type: cell-based; conditions: HME1, calculated on the basis of cell growth inhibition
Method: as §3
as §4, with “normal mammary epithelial HME-1” for “breast tumor L226”, “cells” for “cells (Inflammatory Breast Cancer (IBC) of ERB-B2 subtype)”, “4).” for “3).”
as §5

Structure (SMILES) | fold induction at 20 µM [1] | IC50 [2] [µM] | IC50 [3] [µM] | fold induction at 20 µM [4] | percentage of cells having TdT positive nuclei in tumors [5] [%] | IC50 [6] [µM]
Cc1cc(C)c(C)c(S(=O)(=O)N2CCSC(C)(C)[C@@H]2C(=O)NO)c1C [Compound 4, (3S)—N-hydroxy-4-[(2,3,5,6-tetramethylphenyl)sulfonyl]-2,2-dimethyl-3-thiomorpholine carboxamide] | 7.4 | 2.5 | 20 | 1 | 50 | > 20
Cc1c(C)c(C)c(S(=O)(=O)N2CCSC(C)(C)[C@@H]2C(=O)NO)c(C)c1C [Compound 12, (3S)—N-hydroxy-4-[(2,3,4,5,6-pentamethylphenyl)sulfonyl]-2,2-dimethyl-3-thiomorpholine carboxamide] | 6.2 | 2 | 15 | 1.2 | 70 | > 20
